Like-named read-outs stand apart in the source and are kept apart here.
Columns and labels:
[1] = molecular target: recombinant human SYK (GST-hSYK fusion protein) (Homo sapiens, UniProt P43405)
Text: Homogeneous Time-Resolved Fluorescence (HTRF) Assay for the Recombinant Human SYK Enzyme:

[2] = molecular target: rhSYK (Homo sapiens, UniProt P43405)
[3] = read-out: rhSYK Activity (IC50), recombinant human GST-SYK 5 pM, ATP 25 μM, biotinylated substrate peptide 250 nM, HTRF, 10-dose titration
[4] = read-out: rhSYK Activity, Table 33-A
[5] = read-out: rhSYK Activity, Table 33B
[6] = read-out: rhSYK Activity, Table 33C
[7] = read-out: rhSYK Activity, Table 33D
[8] = read-out: rhSYK Activity, Table 54D
[9] = read-out: rhSYK activity, class symbol given
[10] = read-out: rhSYK Activity, Table 117
[11] = read-out: rhSYK Activity, Table 119, two symbols in a cell = one per listed form

Cc1cc(Nc2nccc(C(F)(F)F)n2)cc(-c2cnc([C@]3(O)CCC(=O)NC[C@H]3O)s2)c1 (relative stereo) [161(A), [cis]5,6-dihydroxy-5-[5-(3-methyl-5-{[4-(trifluoromethyl)pyrimidin-2-yl]amino}phenyl)-1,3-thiazol-2-yl]azepan-2-one] gave an IC50 [1, 3] of less than 100 nM.
With Cc1cc(Nc2nccc(C(F)(F)F)n2)cc(-c2cnc(C3(O)CCCN(C(=O)OC(C)(C)C)CC3)s2)c1 (single isomer, unassigned) [45-2] the IC50 ([1]; read-out: rhSYK Activity, Table 45) was 100 to 1000 nM.
Cc1cc(Nc2nccc(C(F)(F)F)n2)cc(-c2cnc(C3CCC(C(N)=O)C(C)(C)C3)s2)c1 (single isomer, unassigned) [154(b), 2,2-Dim ethyl-4-[5-(3-methyl-5-{[4-(trifluoromethyl)pyrimidin-2-yl]amino}phenyl)-1,3-thiazol-2-yl]cyclohexanecarboxamide] showed an IC50 [1, 3] of less than 100 nM.
Cc1cc(Nc2nccc(C(F)(F)F)n2)cc(-c2cnc(C3CCC(C(N)=O)C(C)(C)C3)s2)c1 (single isomer, unassigned) [154(c), 2,2-Dim ethyl-4-[5-(3-methyl-5-{[4-(trifluoromethyl)pyrimidin-2-yl]amino}phenyl)-1,3-thiazol-2-yl]cyclohexanecarboxamide] was tested, and the IC50 [1, 3] was less than 100 nM.
Cc1cc(Nc2nccc(C(F)(F)F)n2)cc(-c2cnc(C3CCC(C(N)=O)C(C)(C)C3)s2)c1 (single isomer, unassigned) [154(d), 2,2-Dim ethyl-4-[5-(3-methyl-5-{[4-(trifluoromethyl)pyrimidin-2-yl]amino}phenyl)-1,3-thiazol-2-yl]cyclohexanecarboxamide] was tested, and the IC50 [1, 3] was less than 100 nM.
In the case of Cc1cc(Nc2nccc(C(F)(F)F)n2)cc(-c2cnc(C3(O)CCNC(=O)CC3O)s2)c1 (single isomer, unassigned) [161(D), 4,5-dihydroxy-5-[5-(3-methyl-5-{[4-(trifluoromethyl)pyrimidin-2-yl]amino}phenyl)-1,3-thiazol-2-yl]azepan-2-one], the IC50 [1, 3] is reported as less than 100 nM.
Work on Cc1cc(Nc2nccc(C(C)C)n2)cc(-c2cnc(C3(O)CCNC(=O)CC3)s2)c1 (single isomer, unassigned) [Example 10A-3] yielded an IC50 ([1]; read-out: rhSYK Activity, Table 10, Formula A) of less than 100 nM.
Cc1cc(Nc2ncc(Cl)cn2)cc(-c2cnc(C3(O)CCC(C(=O)O)C(C)(C)C3)s2)c1 (single isomer, unassigned) [Example 33A-44] gave an IC50 [1, 4] of less than 100 nM.
In the case of COC(=O)C1CCC(O)(c2ncc(-c3cc(CO)cc(Nc4nccc(C(F)(F)F)n4)c3)s2)CC1(C)C (single isomer, unassigned) [Example 33A-52], the IC50 [1, 4] is reported as less than 100 nM.
For CC1(C)CC(O)(c2ncc(-c3cc(Nc4nccc(C(F)(F)F)n4)cc(C(F)F)c3)s2)CCC1C(=O)O (single isomer, unassigned) [Example 33A-58], the IC50 [1, 4] was less than 100 nM.
CC1(C)CC(O)(c2ncc(-c3cc(F)cc(Nc4nccc(C(F)(F)F)n4)c3)s2)CCC1C(=O)O (single isomer, unassigned) [Example 33A-64] was tested, and the IC50 [1, 4] was less than 100 nM.
CC1(C)CC(O)(c2ncc(-c3cccc(Nc4nccc(C(F)(F)F)n4)c3)s2)CCC1C(=O)O (single isomer, unassigned) [Example 33A-67] gave an IC50 [1, 4] of less than 100 nM.
Work on COc1ccnc(Nc2cc(C)cc(-c3cnc(C4(O)CCC(C(=O)O)C(C)(C)C4)s3)c2)n1 (single isomer, unassigned) [Example 33A-73] yielded an IC50 [1, 4] of less than 100 nM.
Work on Cc1cc(Nc2nccc(C(F)(F)F)n2)cc(-c2cnc(C3(O)CCC(C(=O)O)C(C)(C)C3C)s2)c1 (single isomer, unassigned) [Example 33A-78] yielded an IC50 [1, 4] of less than 100 nM.
Cc1cc(Nc2nccc(C(F)(F)F)n2)cc(-c2cnc(C3(O)CCC(CC(=O)O)C3)s2)c1 (single isomer, unassigned) [Example 33B-26] was tested, and the IC50 [1, 5] was less than 100 nM.
Compound Cc1cc(Nc2nccc(C(F)(F)F)n2)cc(-c2cnc(C3(O)CCC(CC(=O)O)C3)s2)c1 (single isomer, unassigned) [Example 33B-27] has an IC50 [1, 5] of less than 100 nM.
Cc1cc(Nc2nccc(C(F)(F)F)n2)cc(-c2cnc(C3(O)CCC(CC(=O)O)C3)s2)c1 (single isomer, unassigned) [Example 33B-28] showed an IC50 [1, 5] of less than 100 nM.
For Cc1cc(Nc2nccc(C(F)(F)F)n2)cc(-c2cnc(C3(O)CC[C@H]4C(C(=O)O)[C@H]43)s2)c1 (single isomer, unassigned) [Example 33C-7], the IC50 [1, 6] was less than 100 nM.
Cc1cc(Nc2nccc(C(F)(F)F)n2)cc(-c2cnc(C3(O)CC[C@H]4C(C(=O)O)[C@H]43)s2)c1 (single isomer, unassigned) [Example 33C-8] was tested, and the IC50 [1, 6] was less than 100 nM.
For Cc1cc(Nc2nccc(C(F)(F)F)n2)cc(-c2cnc(C(C)(O)CCC(C)(C)C(=O)O)s2)c1 (single isomer, unassigned) [Example 33D-2], the IC50 [1, 7] was less than 100 nM.
Compound Cc1cc(Nc2nccc(C(F)(F)F)n2)cc(-c2cnc(C(C)(O)c3ccc(C(=O)O)s3)s2)c1 (single isomer, unassigned) [Example 33D-22] has an IC50 [1, 7] of less than 100 nM.
For Cc1cc(Nc2nccc(C(F)(F)F)n2)cc(-c2cnc(C3(O)CCCN(C(=O)CC(N)=O)CC3)s2)c1 (single isomer, unassigned) [Example 54D-21], the IC50 [1, 8] was less than 100 nM.
Cc1cc(Nc2nccc(C(F)(F)F)n2)cc(-c2cnc(C3(O)CCCN(C(=O)CC(=O)O)CC3)s2)c1 (single isomer, unassigned) [Example 54D-26] gave an IC50 [1, 8] of less than 100 nM.
Cc1cc(Nc2nccc(C(F)(F)F)n2)cc(-c2cnc(C3(O)CCCN(C(=O)C(O)CO)CC3)s2)c1 (single isomer, unassigned) [Example 54D-29] was tested, and the IC50 [1, 8] was less than 100 nM.
Compound Cc1cc(Nc2nccc(C(F)(F)F)n2)cc(-c2cnc(C3(O)CCCN(C(=O)c4cnn[nH]4)CC3)s2)c1 (single isomer, unassigned) [Example 54D-37] has an IC50 [1, 8] of less than 100 nM.
For Cc1cc(Nc2nccc(C(F)(F)F)n2)cc(-c2cnc(C3(O)CCCN(C(=O)c4cnon4)CC3)s2)c1 (single isomer, unassigned) [Example 54D-39], the IC50 [1, 8] was less than 100 nM.
For Cc1cc(Nc2nccc(C(F)(F)F)n2)cc(-c2cnc(C3(O)CCCN(C(=O)CCC(N)=O)CC3)s2)c1 (single isomer, unassigned) [Example 54D-42], the IC50 [1, 8] was less than 100 nM.
Cc1cc(Nc2nccc(C(F)(F)F)n2)cc(-c2cnc(C3(O)CCCN(C(=O)c4cnnn4C)CC3)s2)c1 (single isomer, unassigned) [Example 54D-51] was tested, and the IC50 [1, 8] was less than 100 nM.
Cc1cc(Nc2nccc(C(F)(F)F)n2)cc(-c2cnc(C3(O)CCCN(C(=O)Cn4ccnn4)CC3)s2)c1 (single isomer, unassigned) [Example 54D-53] showed an IC50 [1, 8] of less than 100 nM.
Cc1cc(Nc2nccc(C(F)(F)F)n2)cc(-c2cnc(C3(O)CCCN(C(=O)c4nnnn4C)CC3)s2)c1 (single isomer, unassigned) [Example 54D-58] was tested, and the IC50 [1, 8] was less than 100 nM.
Cc1cc(Nc2nccc(C(F)(F)F)n2)cc(-c2cnc(C3(O)CCCN(C(=O)Cc4nnn[nH]4)CC3)s2)c1 (single isomer, unassigned) [Example 54D-60] gave an IC50 [1, 8] of less than 100 nM.
CCOC(=O)CC(=O)N1CCCC(O)(c2ncc(-c3cc(C)cc(Nc4nccc(C(F)(F)F)n4)c3)s2)CC1 (single isomer, unassigned) [Example 54D-74] showed an IC50 [1, 8] of less than 100 nM.
With Cc1cc(Nc2nccc(C(F)(F)F)n2)cc(-c2cnc(C3(O)CCCN(C(=O)C(C)(CO)CO)CC3)s2)c1 (single isomer, unassigned) [Example 54D-80] the IC50 [1, 8] was less than 100 nM.
Compound Cc1cc(Nc2nccc(C(F)(F)F)n2)cc(-c2cnc(C3(O)CCCN(C(=O)c4[nH]nnc4Cl)CC3)s2)c1 (single isomer, unassigned) [Example 54D-101] has an IC50 [1, 8] of less than 100 nM.
With Cc1cc(Nc2nccc(C(F)(F)F)n2)cc(-c2cnc(C3(O)CCCN(C(=O)c4nn[nH]c4C(F)(F)F)CC3)s2)c1 (single isomer, unassigned) [Example 54D-108] the IC50 [1, 8] was less than 100 nM.
With Cc1cc(Nc2nccc(C(F)(F)F)n2)cc(-c2cnc(C3(O)CCN(C(=O)OC(C)(C)C)CC3)s2)c1 [Example 45, tert-butyl-4-hydroxy-4-[5-(3-methyl-5-{[4-(trifluoromethyl)pyrimidin-2-yl]amino}phenyl)-1,3-thiazol-2-yl]piperidine-1-carboxylate] the IC50 [2, 9] was 100 to 1000 nM.
For Cc1cc(Nc2nccc(C(F)(F)F)n2)cc(-c2cnc(C3(NS(=O)(=O)C(C)(C)C)COC3)s2)c1 [Example 61, 2-methyl-N-{3-[5-(3-methyl-5-{[4-(trifluoromethyl)pyrimidin-2-yl]amino}phenyl)-1,3-thiazol-2-yl]oxetan-3-yl}propane-2-sulfonamide], the IC50 [2, 9] was less than 100 nM.
With CC(=O)NC1(c2ncc(-c3cc(C)cc(Nc4nccc(C(F)(F)F)n4)c3)s2)CCC1 [Example 66, N-{1-[5-(3-methyl-5-{[4-(trifluoromethyl)pyrimidin-2-yl]amino}phenyl)-1,3-thiazol-2-yl]cyclobutyl}acetamide] the IC50 [2, 9] was less than 100 nM.
With Cc1cc(Nc2nccc(C(F)(F)F)n2)cc(-c2cnc(C3(O)CCC(CC(N)=O)CC3)s2)c1 (stereo not shown) [Example 117-9] the IC50 [2, 10] was less than 100 nM.
With Cc1cc(Nc2nccc(C(F)(F)F)n2)cc(-c2cnc(C3(O)CCC(CC(N)=O)CC3)s2)c1 (stereo not shown) [Example 117-10] the IC50 [2, 10] was less than 100 nM.
With Cc1cc(Nc2nccc(C(C)C)n2)cc(-c2cnc(C3(O)CCC(C(N)=O)C(C)C3)s2)c1 (stereo not shown) [Example 119-11] the IC50 [2, 11] was less than 100 nM.
COc1ccnc(Nc2cc(C)cc(-c3cnc(C4(O)CCC(C(N)=O)C(C)(C)C4)s3)c2)n1 (stereo not shown) [Example 119-13] showed an IC50 [2, 11] of less than 100 nM.
With Cc1cc(Nc2nccc(C(C)O)n2)cc(-c2cnc(C3(O)CCC(C(N)=O)C(C)(C)C3)s2)c1 (stereo not shown) [Example 119-121] the IC50 [2, 11] was less than 100 nM.
In the case of Cc1cc(Nc2nccc(C(C)F)n2)cc(-c2cnc(C3(O)CCC(C(N)=O)C(C)(C)C3)s2)c1 (stereo not shown) [Example 119-123], the IC50 [2, 11] is reported as less than 100 nM.
Compound Cc1cc(Nc2nccc(OC(C)C)n2)cc(-c2cnc(C3(O)CCC(C(N)=O)C(C)(C)C3)s2)c1 (stereo not shown) [Example 119-126] has an IC50 [2, 11] of less than 100 nM.
Cc1cc(Nc2nccc(C(F)(F)F)n2)cc(-c2cnc(C3(O)CCC(C(N)=O)C(C)(C)C3)s2)c1 (stereo not shown) [Example 119-132] gave an IC50 [2, 11] of less than 100 nM.
